Test results taken from article PMC12188320 (2025).

How the values were obtained:
[1] = tested on: NRAS (RNA, G4) UGUGGGAGGGGCGGGUCUGGGUGC; experiment: CD melting; conditions: Li+ (10 mM LiCl, 100 mM lithium cacodylate); pH 7; NRAS 5 µM, Ru-PIC 2 equivalents (10 µM); no stabilization observed
[2] = tested on: CMYC (DNA, G4) TGGGGAGGGTGGGGAGGGTGGGGAAGG; experiment: CD melting; conditions: Li+ (10 mM LiCl, 100 mM lithium cacodylate; supplement: 90 mM LiCl, 10 mM cacodylate); pH 7; CMYC 5 µM, Ru-PIC 2 equivalents (10 µM)
[3] = tested on: CMYC (DNA, G4) TGGGGAGGGTGGGGAGGGTGGGGAAGG; experiment: absorbance and luminescence titration; conditions: K+ (10 mM potassium phosphate, 100 mM KCl); Ru-PIC 10 µM, CMYC 0-30 µM; no constant
[4] = tested on: NRAS (RNA, G4) UGUGGGAGGGGCGGGUCUGGGUGC; experiment: luminescence and absorbance titration; conditions: K+ (10 mM potassium phosphate, 100 mM KCl); RNase-free buffer; Ru-PIC 2 µM, NRAS 0-6 µM; negligible spectral change; no constant

`O=C(O)c1ccc(-c2nc3c4cccnc4c4ncccc4c3[nH]2)cc1.[Ru+2].c1ccc(-c2ccccn2)nc1.c1ccc(-c2ccccn2)nc1` was tested, and the binding [1] was “no”, the ΔTm [2] was 9.1 ± 0.3 °C and the binding [3] was “yes”. The binding [4] was “weak”.
